Here are results for 33 compounds from patent US11957687B2 (REGENERON PHARMACEUTICALS, INC., priority 2019, dated 2024).

Structures are written as SMILES.

For the experiment, the target named is HSD17B13 (Homo sapiens (Human), UniProt Q7Z5P4). Briefly: HSD17B13 enzymatic inhibition assay (150 nM or 50 nM HSD17B13). The format is biochemical. The note with it: 50 nM HSD17B13; read-out: Inhibition of 50 nM of HSD17B13 IC50.
HSD17B13, sequence (Q7Z5P4 other isoform, or with tags, fused parts or gaps): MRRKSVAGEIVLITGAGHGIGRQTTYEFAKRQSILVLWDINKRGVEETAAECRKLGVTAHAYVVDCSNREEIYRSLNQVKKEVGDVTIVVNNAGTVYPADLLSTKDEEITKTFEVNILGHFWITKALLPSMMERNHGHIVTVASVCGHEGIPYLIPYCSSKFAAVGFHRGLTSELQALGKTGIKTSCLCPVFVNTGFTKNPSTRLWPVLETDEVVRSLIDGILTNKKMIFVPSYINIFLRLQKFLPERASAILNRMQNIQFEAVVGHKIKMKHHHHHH
Take `COc1c(C)ccc2c1CCC2NC(=O)c1ccc(C(F)(F)F)[nH]c1=O` (stereo not drawn) [Compound 257, N-(4-methoxy-5-methyl-2,3-dihydro-1H-inden-1-yl)-2-oxo-6-(trifluoromethyl)-1,2-dihydropyridine-3-carboxamide]: the IC50 (in general, the concentration at which inhibition is half-maximal) is 7130 nM.
Take `Cc1ccc2c(c1)Sc1cc(C)ccc1C2NC(=O)c1cc(OC2CCOCC2)c(C(F)(F)F)[nH]c1=O` [Compound 258, N-(3,6-dimethyl-9H-thioxanthen-9-yl)-2-oxo-5-((tetrahydro-2H-pyran-4-yl)oxy)-6-(trifluoromethyl)-1,2-dihydropyridine-3-carboxamide]: the half-inhibitory concentration (IC50) came to 10 nM.
With `COc1ccc2c(c1)Oc1cc(OC)ccc1C2NC(=O)c1cc(OC2CCOCC2)c(C(F)(F)F)[nH]c1=O` [Compound 259, N-(3,6-dimethoxy-9H-xanthen-9-yl)-2-oxo-5-((tetrahydro-2H-pyran-4-yl)oxy)-6-(trifluoromethyl)-1,2-dihydropyridine-3-carboxamide] the figure was 70 nM.
To `O=C(NC1CCCc2c(O)cccc21)c1ccc(SCc2cccc(C(F)(F)F)c2)[nH]c1=O` (stereo not drawn) [Compound 261, N-(5-hydroxy-1,2,3,4-tetrahydronaphthalen-1-yl)-2-oxo-6-((3-(trifluoromethyl)benzyl)thio)-1,2-dihydropyridine-3-carboxamide] belongs 6870 nM.
Take `O=C(N[C@@H]1C[C@H](CCO)Cc2ccccc21)c1ccc(C(F)(F)F)[nH]c1=O` [Compound 262, N-((1R,3R)-3-(2-hydroxyethyl)-1,2,3,4-tetrahydronaphthalen-1-yl)-2-oxo-6-(trifluoromethyl)-1,2-dihydropyridine-3-carboxamide]: the half-maximal inhibitory concentration (IC50) was 980 nM.
To `O=C(N[C@@H]1C[C@@H](CCO)Cc2ccccc21)c1ccc(C(F)(F)F)[nH]c1=O` [Compound 263, N-((1R,3S)-3-(2-hydroxyethyl)-1,2,3,4-tetrahydronaphthalen-1-yl)-2-oxo-6-(trifluoromethyl)-1,2-dihydropyridine-3-carboxamide] belongs 8460 nM; to `O=C(NC1CC(CO)Cc2ccccc21)c1ccc(C(F)(F)F)[nH]c1=O` (stereo not drawn) [Compound 264, N-(3-(hydroxymethyl)-1,2,3,4-tetrahydronaphthalen-l-yl)-2-oxo-6-(trifluoromethyl)-1,2-dihydropyridine-3-carboxamide], 9780 nM.
In the case of `CCC[C@H]1C[C@@H](NC(=O)c2cc(-c3ccccc3)c(C(F)(F)F)[nH]c2=O)c2cc(C)ccc2N1` [Compound 265, N-((2S,4R)-6-methyl-2-propyl-1,2,3,4-tetrahydroquinolin-4-yl)-2-oxo-5-phenyl-6-(trifluoromethyl)-1,2-dihydropyridine-3-carboxamide], the concentration for half-maximal inhibition (IC50) was 80 nM.
For the compound `Cc1ccc2c(c1N)CCC2NC(=O)c1ccc(C(F)(F)F)[nH]c1=O` (stereo not drawn) [Compound 266, N-(4-amino-5-methyl-2,3-dihydro-1H-inden-1-yl)-2-oxo-6-(trifluoromethyl)-1,2-dihydropyridine-3-carboxamide], the half-inhibitory concentration (IC50) stood at 640 nM.
In the case of `C=CCc1cc(NC(=O)c2ccc(C(F)(F)F)[nH]c2=O)cc(CC=C)n1` [Compound 267, N-(2,6-diallylpyridin-4-yl)-2-oxo-6-(trifluoromethyl)-1,2-dihydropyridine-3-carboxamide], the 50% inhibitory concentration (IC50) came out at 9440 nM.
With `CCCc1cc(NC(=O)c2ccc(C(F)(F)F)[nH]c2=O)cc(CCC)n1` [Compound 268, N-(2,6-dipropylpyridin-4-yl)-2-oxo-6-(trifluoromethyl)-1,2-dihydropyridine-3-carboxamide] the figure was > 10000 nM.
For `C=CCc1cc(NC(=O)c2ccc(C(F)(F)F)[nH]c2=O)cc(/C=C/C)n1` [Compound 269, (E)-N-(2-allyl-6-(prop-1-en-1-yl)pyridin-4-yl)-2-oxo-6-(trifluoromethyl)-1,2-dihydropyridine-3-carboxamide], the half-inhibitory concentration (IC50) turned out to be 5010 nM.
Regarding `C=CCc1cc(CC=C)cc(NC(=O)c2ccc(C(F)(F)F)[nH]c2=O)c1` [Compound 270, N-(3,5-diallylphenyl)-2-oxo-6-(trifluoromethyl)-1,2-dihydropyridine-3-carboxamide], the IC50 was determined as 1390 nM.
To `Cc1ccc2c(c1)Sc1ccccc1C2NC(=O)c1ccc(C(F)F)[nH]c1=O` (stereo not drawn) [Compound 275, 6-(difluoromethyl)-N-(3-methyl-9H-thioxanthen-9-yl)-2-oxo-1,2-dihydropyridine-3-carboxamide] belongs 100 nM; to `Cc1ccc2c(c1)C(NC(=O)c1ccc(C(F)F)[nH]c1=O)c1ccccc1O2` (stereo not drawn) [Compound 276, 6-(difluoromethyl)-N-(2-methyl-9H-xanthen-9-yl)-2-oxo-1,2-dihydropyridine-3-carboxamide], 2620 nM.
Consider `O=C(NC1c2ccccc2Sc2ccccc21)c1ccc(C(F)F)[nH]c1=O` [Compound 277, 6-(difluoromethyl)-2-oxo-N-(9H-thioxanthen-9-yl)-1,2-dihydropyridine-3-carboxamide], for which the concentration for half-maximal inhibition (IC50) was determined as 2710 nM.
In the case of `O=C(NC1c2ccccc2Oc2ccccc21)c1ccc(C(F)F)[nH]c1=O` [Compound 278, 6-(difluoromethyl)-2-oxo-N-(9H-xanthen-9-yl)-1,2-dihydropyridine-3-carboxamide], the IC50 was 2000 nM.
With `Cc1ccc2c(c1)Oc1ccccc1C2NC(=O)c1ccc(C(F)F)[nH]c1=O` (stereo not drawn) [Compound 279, 6-(difluoromethyl)-N-(3-methyl-9H-xanthen-9-yl)-2-oxo-1,2-dihydropyridine-3-carboxamide] the figure was 180 nM; with `Cc1ccc2c(c1)Oc1cc(C)ccc1C2NC(=O)c1ccc(C(F)F)[nH]c1=O` [Compound 280, 6-(difluoromethyl)-N-(3,6-dimethyl-9H-xanthen-9-yl)-2-oxo-1,2-dihydropyridine-3-carboxamide], 110 nM.
With `Cc1ccc2c(c1)C(NC(=O)c1ccc(C(F)F)[nH]c1=O)c1ccccc1S2` (stereo not drawn) [Compound 281, 6-(difluoromethyl)-N-(2-methyl-9H-thioxanthen-9-yl)-2-oxo-1,2-dihydropyridine-3-carboxamide] the figure was 1880 nM; with `COc1ccc(-c2nc(SCc3cccc(C(F)(F)F)c3)[nH]c(=O)c2C#N)cc1` [Compound 283, 4-(4-methoxyphenyl)-6-oxo-2-((3-(trifluoromethyl)benzyl)thio)-1,6-dihydropyrimidine-5-carbonitrile], 4760 nM; with `CCCC1Cc2cc(C)ccc2C1NC(=O)c1ccc(C(F)(F)F)[nH]c1=O` (stereo not drawn) [Compound 287, N-(5-methyl-2-propyl-2,3-dihydro-1H-inden-1-yl)-2-oxo-6-(trifluoromethyl)-1,2-dihydropyridine-3-carboxamide], 60 nM.
To `Cc1ccc2c(c1)C(NC(=O)c1ccc(C(F)(F)F)[nH]c1=O)C(C)C2` (stereo not drawn) [Compound 288, N-(2,6-dimethyl-2,3-dihydro-1H-inden-1-yl)-2-oxo-6-(trifluoromethyl)-1,2-dihydropyridine-3-carboxamide] belongs 190 nM; to `CCC1Cc2ccc(C)cc2C1NC(=O)c1ccc(C(F)(F)F)[nH]c1=O` (stereo not drawn) [Compound 290, N-(2-ethyl-6-methyl-2,3-dihydro-1H-inden-1-yl)-2-oxo-6-(trifluoromethyl)-1,2-dihydropyridine-3-carboxamide], 80 nM; to `COc1ccc2c(c1)CCC(C)C2NC(=O)c1ccc(C(F)(F)F)[nH]c1=O` (stereo not drawn) [Compound 292, N-(6-methoxy-2-methyl-1,2,3,4-tetrahydronaphthalen-l-yl)-2-oxo-6-(trifluoromethyl)-1,2-dihydropyridine-3-carboxamide], 220 nM.
As for `Cc1ccc2c(c1)CC(C)C2NC(=O)c1ccc(C(F)(F)F)[nH]c1=O` (stereo not drawn) [Compound 296, N-(2,5-dimethyl-2,3-dihydro-1H-inden-1-yl)-2-oxo-6-(trifluoromethyl)-1,2-dihydropyridine-3-carboxamide], the IC50 was 170 nM.
In the case of `CCC[C@@H]1C[C@H](NC(=O)c2ccc(C(F)(F)F)[nH]c2=O)C[C@H](CCC)O1` [Compound 303, N-((2R,4R,6S)-2,6-dipropyltetrahydro-2H-pyran-4-yl)-2-oxo-6-(trifluoromethyl)-1,2-dihydropyridine-3-carboxamide], the 50% inhibitory concentration (IC50) was found to be 3060 nM.
With `Cc1ccc2c(c1)[C@H](N)CC[C@H]2NC(=O)c1ccc(C(F)(F)F)[nH]c1=O` [Compound 304, N-((1R,4R)-4-amino-6-methyl-1,2,3,4-tetrahydronaphthalen-1-yl)-2-oxo-6-(trifluoromethyl)-1,2-dihydropyridine-3-carboxamide], the half-maximal inhibitory concentration (IC50) is > 10000 nM.
`Cc1ccc2c(c1)[C@@H](N)CC[C@H]2NC(=O)c1ccc(C(F)(F)F)[nH]c1=O` [Compound 305, N-((1R,4S)-4-amino-6-methyl-1,2,3,4-tetrahydronaphthalen-1-yl)-2-oxo-6-(trifluoromethyl)-1,2-dihydropyridine-3-carboxamide]: the IC50 amounted to 7850 nM.
As for `Cc1ccc2sc(C)c(NC(=O)c3ccc(C(F)(F)F)[nH]c3=O)c2c1` [Compound 310, N-(2,5-dimethylbenzo[b]thiophen-3-yl)-2-oxo-6-(trifluoromethyl)-1,2-dihydropyridine-3-carboxamide], the IC50 was found to be 680 nM.
To `NCc1cccc2c1CCCC2NC(=O)c1ccc(C(F)(F)F)[nH]c1=O` (stereo not drawn) [Compound 313, N-(5-(aminomethyl)-1,2,3,4-tetrahydronaphthalen-1-yl)-2-oxo-6-(trifluoromethyl)-1,2-dihydropyridine-3-carboxamide] belongs > 10000 nM; to `CC(C)(C)OC(=O)NCCN1Cc2ccccc2C(NC(=O)c2ccc(C(F)(F)F)[nH]c2=O)C1` (stereo not drawn) [Compound 314, tert-butyl (2-(4-(2-oxo-6-(trifluoromethyl)-1,2-dihydropyridine-3-carboxamido)-3,4-dihydroisoquinolin-2(1H)-yl)ethyl)carbamate], 5520 nM.
Turning to `O=C(NC1CN(CCOCc2ccccc2)Cc2ccccc21)c1ccc(C(F)(F)F)[nH]c1=O` (stereo not drawn) [Compound 315, N-(2-(2-(benzyloxy)ethyl)-1,2,3,4-tetrahydroisoquinolin-4-yl)-2-oxo-6-(trifluoromethyl)-1,2-dihydropyridine-3-carboxamide], the IC50 was 960 nM.
